Earlier results, collected in PMC5603512, “Discovery, Semisynthesis, Antiparasitic and Cytotoxic Evaluation of 14-Membered Resorcylic Acid Lactones and Their Derivatives” (Scientific Reports, 2017).
In brackets after ≈: the same amount, converted by molar mass.

System: P. falciparum lines K1
Settings: cited from earlier work

Row | Compound | IC50 against P. falciparum line K1 [µg/mL]
1 | C[C@H]1C/C=C/[C@@H](O)[C@@H](O)CC/C=C/c2cc(O)cc(O)c2C(=O)O1 [aigialomycin D] | 6.6 (≈ 19.7 µM)
2 | COc1cc(O)c2c(c1)[C@H]1O[C@@H]1C[C@H](O)[C@H](O)C(=O)/C=C\C[C@H](C)OC2=O [Hypothemycin] | 2.2 (≈ 5.81 µM)
